Test results: article PMC6320941, “Synthesis and Evaluation of 3-Substituted-4-(quinoxalin-6-yl) Pyrazoles as TGF-β Type I Receptor Kinase Inhibitors” (Molecules, 2018)

Tests used:
[1] = target: T1, ALK5 (Homo sapiens, UniProt P36897); assay: Radiometric 33PanQinase ALK5 kinase assay (ProQinase), casein substrate; assay type: biochemical; details: for remaining activity at 10 µM: compound at 10 μM, in duplicate, read-out: Residual Activity (%) ALK5; for Selectivity Index: IC50 of p38α/IC50 of ALK5; for ALK5 inhibitory activity in words: at up to 5.0 μM for 18a–d, 'at up to 2.26 μM' for pyrimidin-4-yl compounds
T1 sequence (P36897 205-495 limits assumed): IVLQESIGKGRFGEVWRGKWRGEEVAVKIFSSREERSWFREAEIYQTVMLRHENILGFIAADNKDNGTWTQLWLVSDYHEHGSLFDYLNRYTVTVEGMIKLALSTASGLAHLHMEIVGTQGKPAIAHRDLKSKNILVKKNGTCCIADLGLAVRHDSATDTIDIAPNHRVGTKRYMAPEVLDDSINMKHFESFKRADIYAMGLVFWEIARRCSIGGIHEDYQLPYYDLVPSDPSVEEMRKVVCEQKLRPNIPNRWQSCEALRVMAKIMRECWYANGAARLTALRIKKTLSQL
Description: To investigate whether compounds 14a–d, 15a–d, 16a–d, 17a–d, 18a–d, and 19a–d would inhibit ALK5, a kinase assay for preliminary screening was performed using the purified human ALK5 kinase domain produced in Sf9 insect cells and compounds at 10 μM.
(§1) All kinase experiments were completed by the ProQinase (Freiburg, Germany). All protein kinases were expressed in Sf9 insect cells or in E. coli as recombinant GST-fusion proteins or His-tagged proteins, either as full-length or enzymatically active fragments. All kinases were obtained from human cDNAs and purified by either GSH-affinity chromatography or immobilized metal. The purity of the protein kinases was examined by SDS-PAGE/Coomassie staining. The identity was checked by mass spectroscopy.
(§2) A radiometric protein kinase assay (^33PanQinase® activity assay) was used for measuring the kinase activity of the two protein kinases. All kinase assays were performed in 96-well FlashPlates^TM from PerkinElmer (Boston, MA, USA) in 50 μL reaction volumes. The reaction cocktail was pipetted in four steps in the following order: 20 μL of assay buffer (standard buffer), 5 μL of ATP solution (in H2O), 5 μL of test compound (in 10% DMSO), 20 μL enzyme/substrate mix.
(§3) The assay for all protein kinases contained 70 mM HEPES-NaOH pH 7.5, 3 mM MgCl2, 3 mM MnCl2, 3 μM Na-orthovanadate, 1.2 mM DTT, 50 μg/mL PEG20000, ATP, [γ-^33P]-ATP, protein kinase, and substrate.
(§4) The reaction cocktail was incubated at 30 °C for 60 min. The reaction was halted with 50 μL of 2% (v/v) H3PO4, plates were aspirated and washed two times with 200 μL 0.9% (w/v) NaCl. Incorporation of ^33Pi was established with a microplate scintillation counter (PerkinElmer, Boston, MA, USA). All assays were performed with a BeckmanCoulter/SAGIAN™ Core System.

[2] = target: p38α MAP kinase (Homo sapiens, UniProt Q16539); assay: Radiometric 33PanQinase p38α MAP kinase assay (ProQinase), ATF2 substrate; assay type: biochemical; details: for remaining activity at 10 µM: compound at 10 μM, in duplicate, read-out: Residual Activity (%) p38α
Description: We selected p38α MAP kinase to survey the selectivity profile of this series of compounds because its kinase domain is among the most homologous to that of ALK5 [27].
as §1, §2, §3, §4

Chain of p38α MAP kinase (Q16539 whole entry, the tested form may be a part): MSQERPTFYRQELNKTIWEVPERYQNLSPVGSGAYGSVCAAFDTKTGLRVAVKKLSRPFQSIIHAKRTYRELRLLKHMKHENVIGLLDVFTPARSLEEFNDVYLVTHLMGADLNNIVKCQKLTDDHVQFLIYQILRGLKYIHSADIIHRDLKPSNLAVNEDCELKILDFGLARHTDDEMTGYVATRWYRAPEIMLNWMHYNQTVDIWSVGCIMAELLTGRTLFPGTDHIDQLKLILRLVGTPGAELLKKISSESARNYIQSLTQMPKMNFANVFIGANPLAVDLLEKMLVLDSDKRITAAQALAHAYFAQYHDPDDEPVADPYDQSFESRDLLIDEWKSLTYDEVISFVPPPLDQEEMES

Compound | melting point [°C] | remaining activity at 10 µM [1] [%] | remaining activity at 10 µM [2] [%] | IC50 [1] [µM] | Selectivity Index [1] | ALK5 inhibitory activity in words [1] | IC50 [2] [µM] | fold more selective than compound 3 (LY-2157299) against p38α MAP kinase [1] [fold] | inhibition at 10 µM ([1]; at 10 µM) [%]
CN(C)c1cccc(-c2nn(CC(=O)Nc3ccccc3)cc2-c2ccc3nccnc3c2)n1 [Compound 14a, 2-(3-(6-(Dimethylamino)pyridin-2-yl)-4-(quinoxalin-6-yl)-1H-pyrazol-1-yl)-N-phenylacetamide] | 212.5 to 214 | 85 | 110 | – | – | – | – | – | –
CN(C)c1cccc(-c2nn(CC(=O)Nc3cccc(F)c3)cc2-c2ccc3nccnc3c2)n1 [Compound 14c, 2-(3-(6-(Dimethylamino)pyridin-2-yl)-4-(quinoxalin-6-yl)-1H-pyrazol-1-yl)-N-(3-fluorophenyl)acetamide] | 176.5 to 178.5 | 37 | 121 | – | – | – | – | – | –
O=C(Cn1cc(-c2ccc3nccnc3c2)c(-c2ccncn2)n1)Nc1ccccc1F [Compound 25b, N-(2-Fluorophenyl)-2-(3-(pyrimidin-4-yl)-4-(quinoxalin-6-yl)-1H-pyrazol-1-yl)acetamide] | 192.3 to 194.5 | – | – | 3.66 | >3 | no significant ALK5 inhibition activity | > 10 | – | –
CN(C)c1cccc(-c2nn(CC(=O)Nc3cccc(C#N)c3)cc2-c2ccc3nccnc3c2)n1 [Compound 14d, N-(3-Cyanophenyl)-2-(3-(6-(dimethylamino)pyridin-2-yl)-4-(quinoxalin-6-yl)-1H-pyrazol-1-yl)acetamide] | 218.5 to 221.5 | 95 | 121 | – | – | – | – | – | –
CN(C)c1cccc(-c2c(-c3ccc4nccnc4c3)cnn2CC(=O)Nc2ccccc2F)n1 [Compound 15b, 2-(5-(6-(Dimethylamino)pyridin-2-yl)-4-(quinoxalin-6-yl)-1H-pyrazol-1-yl)-N-(2-fluorophenyl)acetamide] | 130.2 to 133 | 87 | 117 | – | – | – | – | – | –
Cc1csc(-c2nn(CC(=S)Nc3ccccc3F)cc2-c2ccc3nccnc3c2)n1 [Compound 19b, N-(2-Fluorophenyl)-2-(3-(4-methylthiazol-2-yl)-4-(quinoxalin-6-yl)-1H-pyrazol-1-yl)ethanethioamide] | – | 2 | 92 | 0.28 | >35 | – | > 10 | 9.0 | 98
Cc1csc(-c2nn(CC(=O)Nc3ccccc3F)cc2-c2ccc3nccnc3c2)n1 [Compound 16b, N-(2-Fluorophenyl)-2-(3-(4-methylthiazol-2-yl)-4-(quinoxalin-6-yl)-1H-pyrazol-1-yl)acetamide] | 197.5 to 200 | 5 | 103 | – | – | – | – | – | –
Cc1csc(-c2c(-c3ccc4nccnc4c3)cnn2CC(=O)Nc2cccc(F)c2)n1 [Compound 17c, N-(3-Fluorophenyl)-2-(5-(4-methylthiazol-2-yl)-4-(quinoxalin-6-yl)-1H-pyrazol-1-yl)acetamide] | – | 69 | 66 | – | – | – | – | – | –
CN(C)c1cccc(-c2nn(CC(=S)Nc3cccc(F)c3)cc2-c2ccc3nccnc3c2)n1 [Compound 18c, 2-(3-(6-(Dimethylamino)pyridin-2-yl)-4-(quinoxalin-6-yl)-1H-pyrazol-1-yl)-N-(3-fluorophenyl)ethanethioamide] | 68.5 to 70.2 | 29 | 165 | 5 | >2 | – | > 10 | – | –
Cc1csc(-c2c(-c3ccc4nccnc4c3)cnn2CC(=O)Nc2ccccc2)n1 [Compound 17a, 2-(5-(4-Methylthiazol-2-yl)-4-(quinoxalin-6-yl)-1H-pyrazol-1-yl)-N-phenylacetamide] | – | 46 | 68 | – | – | – | – | – | –
N#Cc1cccc(NC(=O)Cn2cc(-c3ccc4nccnc4c3)c(-c3ccncn3)n2)c1 [Compound 25d, N-(3-Cyanophenyl)-2-(3-(pyrimidin-4-yl)-4-(quinoxalin-6-yl)-1H-pyrazol-1-yl)acetamide] | 178.3 to 180.5 | – | – | 4.12 | >2 | no significant ALK5 inhibition activity | > 10 | – | –
O=C(Cn1cc(-c2ccc3nccnc3c2)c(-c2ccncn2)n1)Nc1ccccc1 [Compound 25a, N-Phenyl-2-(3-(pyrimidin-4-yl)-4-(quinoxalin-6-yl)-1H-pyrazol-1-yl)acetamide] | 170.3 to 172.5 | – | – | 5.03 | >2 | no significant ALK5 inhibition activity | > 10 | – | –
Cc1cccc(-c2nn3c(c2-c2ccnc4ccc(C(N)=O)cc24)CCC3)n1 [Compound 3, LY-2157299, reference compound] | – | 1 | 4 | – | – | – | 0.49 | – | –
CN(C)c1cccc(-c2c(-c3ccc4nccnc4c3)cnn2CC(=O)Nc2ccccc2)n1 [Compound 15a, 2-(5-(6-(Dimethylamino)pyridin-2-yl)-4-(quinoxalin-6-yl)-1H-pyrazol-1-yl)-N-phenylacetamide] | – | 95 | 118 | – | – | – | – | – | –
Cc1csc(-c2nn(CC(=S)Nc3ccccc3)cc2-c2ccc3nccnc3c2)n1 [Compound 19a, 2-(3-(4-Methylthiazol-2-yl)-4-(quinoxalin-6-yl)-1H-pyrazol-1-yl)-N-phenylethanethioamide] | – | 5 | 102 | 0.57 | >17 | – | > 10 | – | –
Cc1csc(-c2c(-c3ccc4nccnc4c3)cnn2CC(=O)Nc2ccccc2F)n1 [Compound 17b, N-(2-Fluorophenyl)-2-(5-(4-methylthiazol-2-yl)-4-(quinoxalin-6-yl)-1H-pyrazol-1-yl)acetamide] | – | 73 | 54 | – | – | – | – | – | –
Cc1csc(-c2nn(CC(=S)Nc3cccc(F)c3)cc2-c2ccc3nccnc3c2)n1 [Compound 19c, N-(3-Fluorophenyl)-2-(3-(4-methylthiazol-2-yl)-4-(quinoxalin-6-yl)-1H-pyrazol-1-yl)ethanethioamide] | – | 2 | 109 | 0.33 | >30 | – | > 10 | – | –
N#Cc1cccc(NC(=S)Cn2cc(-c3ccc4nccnc4c3)c(-c3ccncn3)n2)c1 [Compound 27d, N-(3-Cyanophenyl)-2-(3-(pyrimidin-4-yl)-4-(quinoxalin-6-yl)-1H-pyrazol-1-yl)ethanethioamide] | – | – | – | 2.26 | >4 | no significant ALK5 inhibition activity | > 10 | – | –
Fc1ccccc1NC(=S)Cn1cc(-c2ccc3nccnc3c2)c(-c2ccncn2)n1 [Compound 27b, N-(2-Fluorophenyl)-2-(3-(pyrimidin-4-yl)-4-(quinoxalin-6-yl)-1H-pyrazol-1-yl)ethanethioamide] | – | – | – | > 10 | – | no significant ALK5 inhibition activity | > 10 | – | –
Cc1csc(-c2nn(CC(=S)Nc3cccc(C#N)c3)cc2-c2ccc3nccnc3c2)n1 [Compound 19d, N-(3-Cyanophenyl)-2-(3-(4-methylthiazol-2-yl)-4-(quinoxalin-6-yl)-1H-pyrazol-1-yl)ethanethioamide] | – | 13 | 105 | 0.37 | >27 | – | > 10 | – | –
Cc1csc(-c2c(-c3ccc4nccnc4c3)cnn2CC(=O)Nc2cccc(C#N)c2)n1 [Compound 17d, N-(3-Cyanophenyl)-2-(5-(4-methylthiazol-2-yl)-4-(quinoxalin-6-yl)-1H-pyrazol-1-yl)acetamide] | – | 58 | 97 | – | – | – | – | – | –
